Key:
[1] = active metabolite; cited from earlier work
[2] = tested on: rats; assay: Drug self-administration and water-reinforced responding in rats (earlier studies); assay type: in vivo, rat
Method: Other work has extended the “anti-addictive” effect of 18-MC to oral intake of ethanol. In all cases, these effects last for at least 24 hours. […] Unlike 18-MC, ibogaine and many other iboga alkaloid congeners (approximately 30 tested) decrease responding for water as well as for drugs. And it was precisely this unique specificity that led to development and study of 18-MC.

Compound | presence in plasma as metabolite of 18-MC [1] | responding for drugs ([2]; rat, in vivo) | responding for water (non-drug reinforcer) ([2]; same doses that decrease drug self-administration)
COC(=O)[C@@]12C[C@H]3C[C@H](CCO)[C@@H]1N(CCc1c2[nH]c2ccccc12)C3 [18-hydroxycoronaridine] | present in plasma in low concentrations | – | –
ibogaine [reference compound] | – | decrease | decrease
